Source: PMC7948982, “Dissecting the low catalytic capability of flavin-dependent halogenases” (The Journal of Biological Chemistry, 2020)

Key:
[1] = molecular target: T1, Thal (tryptophan 6-halogenase) (Streptomyces albogriseolus, UniProt A1E280); assay: X-ray crystal structure, […] Å; format: binding; conditions: apo crystals soaked with FAD and Trp for 7 days, 25 °C
T1 construct: recombinant, E. coli BL21(DE3), pET28b; tag residues seen in 7CU1; two protomers per asymmetric unit; GFP11 C-terminal tag only in the mutant library screen

[2] = molecular target: T1, Thal (tryptophan 6-halogenase); assay: X-ray crystal structure, […] Å; format: binding; conditions: crystal soak with FAD, tryptophan and dithionite; flavin site
[3] = molecular target: T2, Thal (tryptophan 6-halogenase) (Streptomyces albogriseolus, UniProt A1E280, K79T); assay: stopped-flow absorbance at […] and […] nm, C4a-hydroperoxyflavin formation; format: biochemical; conditions: 30 μM enzyme, 15 μM FADH-, air-saturated buffer; 20 mM potassium phosphate pH 7.2, 25 °C
T2 construct: recombinant, E. coli BL21(DE3), pET28b; tag residues seen in 7CU1; two protomers per asymmetric unit; GFP11 C-terminal tag only in the mutant library screen

[4] = molecular target: T3, PyrH (tryptophan 5-halogenase) (Streptomyces rugosporus, UniProt A4D0H5); assay: stopped-flow fluorescence, C4a-hydroxyflavin formation; format: biochemical; conditions: with C4a-hydroperoxyflavin enzyme; pH 7.2, 25 °C
T3 construct: construct and source details not given

[5] = molecular target: T4, PrnA (tryptophan 7-halogenase) (Pseudomonas fluorescens, UniProt P95480); assay: as above; format: biochemical; conditions: with C4a-hydroperoxyflavin enzyme; pH 7.2, 25 °C
T4 construct: construct and source details not given

[6] = molecular target: T1, Thal (tryptophan 6-halogenase); assay: stopped-flow fluorescence, kobs of C4a-hydroxyflavin formation versus halide; format: biochemical; conditions: binding to the C4a-hydroperoxyflavin form of the enzyme; two-step model; 20 mM potassium phosphate pH 7.2, 25 °C
Description: stopped-flow fluorescence, kobs of C4a-hydroxyflavin formation versus halide on Thal (tryptophan 6-halogenase)

[7] = molecular target: T1, Thal (tryptophan 6-halogenase); assay: X-ray crystal structure, […] Å; format: binding; conditions: apo crystals soaked, 2 days, 25 °C; tryptophan site
[8] = molecular target: T5, (Pseudomonas fluorescens, UniProt P95480); assay: multiple turnover halogenation; format: biochemical
T5 construct: gene prnA; construct and source details not given
T5 sequence (P95480 whole entry): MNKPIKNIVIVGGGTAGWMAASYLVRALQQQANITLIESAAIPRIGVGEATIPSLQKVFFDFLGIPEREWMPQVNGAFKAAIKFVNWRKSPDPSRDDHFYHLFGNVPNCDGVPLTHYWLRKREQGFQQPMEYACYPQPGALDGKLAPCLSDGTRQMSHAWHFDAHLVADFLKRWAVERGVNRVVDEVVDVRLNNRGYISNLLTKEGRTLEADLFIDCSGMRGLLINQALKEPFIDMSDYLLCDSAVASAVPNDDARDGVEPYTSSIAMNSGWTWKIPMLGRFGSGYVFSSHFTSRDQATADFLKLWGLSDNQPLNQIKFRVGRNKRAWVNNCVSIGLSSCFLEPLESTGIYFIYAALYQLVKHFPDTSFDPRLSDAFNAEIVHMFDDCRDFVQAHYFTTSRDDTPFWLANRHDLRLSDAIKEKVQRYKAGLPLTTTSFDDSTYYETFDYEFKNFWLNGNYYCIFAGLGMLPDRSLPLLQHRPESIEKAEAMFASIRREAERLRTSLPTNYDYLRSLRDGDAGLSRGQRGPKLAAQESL

T1 sequence (A1E280 whole entry): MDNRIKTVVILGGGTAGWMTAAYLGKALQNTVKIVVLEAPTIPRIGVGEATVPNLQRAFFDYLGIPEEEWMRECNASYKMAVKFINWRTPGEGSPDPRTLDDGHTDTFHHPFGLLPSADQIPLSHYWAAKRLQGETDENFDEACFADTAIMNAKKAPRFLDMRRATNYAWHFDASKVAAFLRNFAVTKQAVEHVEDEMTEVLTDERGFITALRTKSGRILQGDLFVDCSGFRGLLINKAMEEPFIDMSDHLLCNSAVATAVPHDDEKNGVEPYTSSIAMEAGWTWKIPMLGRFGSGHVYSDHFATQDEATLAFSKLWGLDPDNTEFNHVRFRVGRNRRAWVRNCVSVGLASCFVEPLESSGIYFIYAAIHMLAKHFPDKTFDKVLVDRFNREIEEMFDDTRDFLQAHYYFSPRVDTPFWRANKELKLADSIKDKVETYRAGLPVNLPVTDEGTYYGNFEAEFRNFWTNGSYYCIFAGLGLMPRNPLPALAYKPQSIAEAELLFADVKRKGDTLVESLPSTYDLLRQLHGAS
T3 sequence (A4D0H5 whole entry): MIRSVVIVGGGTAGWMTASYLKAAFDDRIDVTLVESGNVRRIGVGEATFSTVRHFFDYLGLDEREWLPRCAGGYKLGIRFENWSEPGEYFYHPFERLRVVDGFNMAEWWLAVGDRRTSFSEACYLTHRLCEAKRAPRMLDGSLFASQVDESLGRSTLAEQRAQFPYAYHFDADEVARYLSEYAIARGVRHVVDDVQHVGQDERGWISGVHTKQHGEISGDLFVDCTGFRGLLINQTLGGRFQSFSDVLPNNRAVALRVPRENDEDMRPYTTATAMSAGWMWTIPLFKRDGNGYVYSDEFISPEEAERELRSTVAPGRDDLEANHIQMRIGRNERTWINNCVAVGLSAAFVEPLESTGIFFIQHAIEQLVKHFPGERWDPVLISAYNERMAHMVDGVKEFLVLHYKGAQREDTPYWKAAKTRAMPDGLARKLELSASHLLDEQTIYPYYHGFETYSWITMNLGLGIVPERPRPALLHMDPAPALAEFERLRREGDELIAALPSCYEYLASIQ
T2 sequence (A1E280 whole entry K79T): as the sequence (A1E280 whole entry) above, with K79T counted along it
T4 sequence (P95480 whole entry): as the sequence (P95480 whole entry) above

Question: For Nc1ncnc2c1ncn2[C@@H]1O[C@H](COP(=O)(O)O)[C@@H](O)[C@H]1O [AMP], which “X-ray crystal structure, 1.91 Å” value ([1]; flavin site crystal, AMP not added to the soak) is on record?
Answer: Thal:FAD:AMP (PDB code 7CU1) were solved with two protomers per asymmetric unit (asu).

Question: Which “X-ray crystal structure, 2.40 Å” value [2] does the source give for Cc1cc2c(cc1C)N(C[C@H](O)[C@H](O)[C@H](O)COP(=O)(O)OP(=O)(O)OC[C@H]1O[C@@H](n3cnc4c(N)ncnc43)[C@H](O)[C@@H]1O)c1[nH]c(=O)[nH]c(=O)c1N2 [FADH^−] here?
Answer: Clear electron density for FADH^− was observed in both protomers.

Question: And the “stopped-flow absorbance at 380 and 450 nm, C4a-hydroperoxyflavin formation” value [3]?
Answer: These data indicate that Lys79Thr could still form C4aOOH-FAD

Question: Which “X-ray crystal structure, 1.91 Å” value ([1]; flavin site) does the source give for Cc1cc2nc3c(=O)[nH]c(=O)nc-3n(C[C@H](O)[C@H](O)[C@H](O)COP(=O)(O)OP(=O)(O)OC[C@H]3O[C@@H](n4cnc5c(N)ncnc54)[C@H](O)[C@@H]3O)c2cc1C [FAD] here?
Answer: Thal:FAD:AMP (PDB code 7CU1) were solved with two protomers per asymmetric unit (asu).

Question: What does the source list for I [I^−]?
Answer: stopped-flow fluorescence, C4a-hydroxyflavin formation [4]: PrnA and PyrH could also react with I^− to form HOI and C4aOH-FAD; stopped-flow fluorescence, C4a-hydroxyflavin formation [5]: PrnA and PyrH could also react with I^− to form HOI and C4aOH-FAD; Kd [6]: 64 ± 21 µM

Question: Which results are given for N[C@@H](Cc1c[nH]c2ccccc12)C(=O)O [tryptophan]?
Answer: X-ray crystal structure, 1.95 Å [7]: we solved the structure of the Thal:TRP complex (PBD code 7CU0; multiple turnover halogenation [8]: multiple turnover reactions of Thal were carried out and compared with the reactions of PrnA
